Laboratory results as given in ChEMBL document CHEMBL1781940, “Cytotoxic and PPARs transcriptional activities of sterols from the Vietnamese soft coral Lobophytum laevigatum” (Bioorg Med Chem Lett, 2011).
Activity calls are given as the source filed them. The rule behind the calls is not given here.

Assays:
[1] = test system: HL-60; test: Cytotoxicity against human HL60 cells after 24 hrs by MTT assay; format: functional, cell-based; details: for IC50: HL-60, 24 h
[2] = test system: HCT-116; test: Cytotoxicity against human HCT116 cells after 24 hrs by MTT assay; format: functional, cell-based; details: for IC50: HCT-116, 24 h
[3] = test system: A549; test: Cytotoxicity against human A549 cells after 24 hrs by MTT assay; format: functional, cell-based; details: for IC50: A549, 24 h
[4] = test system: HL-60; test: Induction of apoptosis in human HL60 cells assessed as chromatin condensation apoptotic bodies at 5.6 uM after 24 hrs using Hoechst 33342 staining and fluorescent microscopy; format: functional, cell-based
[5] = test system: HCT-116; test: Induction of apoptosis in human HCT116 cells assessed as chromatin condensation apoptotic bodies at 3.2 uM after 24 hrs using Hoechst 33342 staining and fluorescent microscopy; format: functional, cell-based
[6] = test system: A549; test: Induction of apoptosis in human A549 cells assessed as chromatin condensation apoptotic bodies at 4.5 uM after 24 hrs using Hoechst 33342 staining and fluorescent microscopy; format: functional, cell-based
[7] = test system: HepG2; test: Transactivation of PPAR transcriptional activity expressed in human HepG2 cells co-expressing PPRE-Luc after 24 hrs by luciferase reporter gene assay relative to negative control; format: cell-based
[8] = test system: HepG2; test: Transactivation of PPAR transcriptional activity expressed in human HepG2 cells co-expressing PPRE-Luc at 1 uM after 24 hrs by luciferase reporter gene assay relative to negative control; format: cell-based
[9] = test system: HepG2; test: Transactivation of PPAR transcriptional activity expressed in human HepG2 cells co-expressing PPRE-Luc at 10 uM after 24 hrs by luciferase reporter gene assay relative to negative control; format: cell-based

For `O=C1c2c(O)ccc(O)c2C(=O)c2c(NCCNCCO)ccc(NCCNCCO)c21` [MITOXANTRONE], the IC50 [1] was 8.2 µM.
With `C[C@H](CC[C@H](C)C(C)(C)O)[C@H]1CC[C@H]2[C@@H]3CC=C4C[C@@H](O)CC[C@]4(C)[C@H]3CC[C@]12C` the IC50 [2] was 18.1 µM, the IC50 [3] was greater than 20 µM and the IC50 [1] was greater than 20 µM.
With `CC(C)[C@H](C)[C@H](C)[C@@H](O)[C@]1(C)O[C@]12CC[C@H]1[C@@H]3CC[C@H]4[C@H](C)[C@@H](O)CC[C@]4(C)[C@H]3CC[C@@]12C` [LOBOPHYTOSTEROL] the Activity [4] was “Active”, the Activity [5] was “Active” and the IC50 [2] was 3.2 µM. For the same molecule, the IC50 [3] was 4.5 µM, the IC50 [1] was 5.6 µM and the Activity [6] was “Active”.
For `C[C@H]1C[C@]2(O[C@H]3C[C@H]4[C@@H]5CC=C6C[C@@H](O)CC[C@]6(C)[C@H]5CC[C@]4(C)[C@H]3[C@@]2(C)O)OC1(C)C`, the Activity [7] was “Dose-dependent effect”, the IC50 [2] was 6.9 µM and the IC50 [3] was greater than 20 µM. It also gave a fold change (FC) [8] of 1.4, a fold change (FC) [9] of 2 and an IC50 [1] greater than 20 µM.
In the case of `CC(C)[C@@H](C)CC[C@@H](C)[C@H]1CC[C@H]2[C@@H]3[C@H](O)C=C4C[C@@H](O)CC[C@]4(C)[C@H]3CC[C@]12C`, the Activity [7] is reported as “Dose-dependent effect”, the Activity [2] is reported as “inactive” and the Activity [3] is reported as “inactive”. For the same molecule, the fold change (FC) [8] was 1.2, the fold change (FC) [9] was 2.5 and the Activity [1] was “inactive”.
With `CC(=O)[C@H]1CC[C@H]2[C@@H]3CC=C4C[C@@H](O)CC[C@]4(C)[C@H]3CC[C@]12C` the Activity [7] was “Dose-dependent effect”, the Activity [2] was “inactive” and the Activity [3] was “inactive”. The fold change (FC) [8] was 1.6, the fold change (FC) [9] was 2.1 and the Activity [1] was “inactive”.
In the case of `CC(C)CCC[C@@H](C)[C@H]1CC[C@H]2[C@@H]3CC=C4C[C@@H](O)CC[C@]4(C)[C@H]3CC[C@]12C`, the Activity [2] is reported as “inactive”, the Activity [3] is reported as “inactive” and the Activity [1] is reported as “inactive”.
